Assay results as given in patent US20180344748A1, “METHODS AND COMPOSITIONS FOR PREVENTING OR TREATING CHRONIC INFLAMMATORY DISEASES” (ENTERIN LABORATORIES, INC., priority 2017, published 2018).

Tests used:
Assay type in all cases: cell-based
[1] = system: human neutrophils; experiment: Chemotaxis assay, human neutrophils; conditions: bell shaped concentration curve; FIG. 3A
Procedure: (§1) FIGS. 3A-F: α-Synuclein is a chemoattractant dependent on CD11b. Assays were conducted as described in the examples below. The average of 3 independent assays for each sample is presented. The concentration of the α-synuclein aggregate is in terms of the monomer. A positive control, FMLP, is noted in black. NAc 1-21, the N-acetylated peptide corresponding to the first 21 amino acids of α-synuclein; 1-25, a peptide corresponding to the first 25 amino acids. FIG. 3A=Human Neutrophils; FIG. 3B=Human monocytes; FIGS. 3C and 3D=Representative photos of the cellular response. FIG. 3E=Neutrophils from CD11b −/− or wild type mice (0.5×10^6/ml), assayed as described in the examples. FIG. 3F=Human neutrophils incubated in the presence of anti-CD11b antibody or control (50 μg/ml each). CM, control media (negative control)
(§2) Chemotaxis, or the movement of cells in response to a chemical stimulus, is routinely measured in a Boyden chamber. In this apparatus, immune cells are attached to one side of a membrane containing pores through which the immune cells can traffic. On the other side of the membrane a chemoattractant is introduced. Over the course of several hours the immune cells migrate from the side of the membrane on which they were initially placed to the side exposed to the chemoattractant. […] After 24 hours the number of immune cells that have migrated to towards the chemoattractant are counted. […]

[2] = system: human monocytes; experiment: Chemotaxis assay, human monocytes; conditions: bell shaped concentration curve; FIG. 3B
Procedure: as §1, §2

[3] = system: human monocyte derived dendritic cells; experiment: Dendritic cell maturation, flow cytometry of surface markers; conditions: 10 μM, 48 h, FIG. 4
Procedure: FIG. 4: Human monocyte derived dendritic cells were incubated at 5×10^5/ml in the presence of recombinant monomeric or aggregated alpha-synuclein, and the NAc 1-21 amino terminal peptide of alpha-synuclein (each at a final concentration of 10 μM) for 48 h before they were immunostained and analyzed by flow cytometry for the expression of the indicated surface molecules. E. coli lipopolysaccharide (LPS) (100 ng/ml) was included as a positive control. Shown are the results of one experiment representative of three. The ordinate of […].
Chemotaxis assays followed published procedures. De et al. (2000). Neutrophils and monocytes were isolated from the blood of healthy human donors as described. Id. Recombinant human α-synuclein (lot #20162050, endotoxin contamination 18.6 EU/mg) was from Proteos, Inc. via the Michael J. Fox Foundation. The α-synuclein aggregates were made following a protocol provided by Proteos. […]
Human monocyte derived dendritic cells were exposed for 2 days to α-synuclein monomer, aggregate, and N—Ac 1-21 peptide and then analyzed by flow cytometry to measure the extent of phenotypic maturation, using CD80, CD83, CD86, HLA-ABC, and HLA-DR as determinants (FIG. 4).

Substance | chemotactic activity towards human neutrophils [1] | chemotactic activity towards human monocytes [2] | dendritic cell maturation (CD80, CD83, CD86, HLA-ABC, HLA-DR) [3]
peptide, extending to residue 25: a peptide corresponding to the first 25 amino acids of α-synuclein, lacking the N-acetyl moiety | inactive | inactive | 
N-acetylated peptide: the N-acetylated peptide corresponding to the first 21 amino acids of α-synuclein | retained the chemotactic activity of the full-length protein | retained the chemotactic activity of the full-length protein | did not
